Data as given in US20220041578A1, “ISOINDOLINE COMPOUND, AND PREPARATION METHOD, PHARMACEUTICAL COMPOSITION, AND APPLICATION OF ISOINDOLINE COMPOUND” (Shanghai Institute of Meteria Medica, Chinese Academy of …, priority 2018, published 2022).
Where two headings read alike, the source gives them in different places.

Key:
Type in all cases: cell-based
MM.1S cells = test: Effect of the compound on the proliferation of MM.1S cells (MTS); conditions: Homo sapiens, MM1.S, 168 h, 7 days, read-out: Cell inhibitory activity (IC50)
Outline: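 In 1640 medium + 10% FBS, 20,000 cells per well were treated with 5-fold compound dilutions at 0.2% DMSO for 7 days at 37° C., 5% CO2. MTS was read after 3–4 h as OD490−OD690, inhibition was calculated against DMSO and blank wells, and IC50 was fitted; three independent experiments were run.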

Mino cells = test: Effect of the compound on the proliferation of Mino cells (MTS); conditions: Homo sapiens, 72 h, 3 days, read-out: Inhibitory activity (IC50)
Method: Mino cells were cultured with 1640 plus […] and collected. The cell concentration was diluted according to the action time of 3 days, and 90 ul cell suspension was added to each well of the 96-well cell plate to make the cell count to be 8000. 10 ul of DMSO with a final concentration of 0.2% was added to the control cell wells. The compound was diluted 5-fold with the 10 mM stock solution, and 10 ul was also added to the compound cell wells (the final concentration of DMSO was 0.2%). The cells were placed in a 37° C., […] incubator and incubated for 3 days. After preparing the reaction solution according to the MTS kit (Promega, G5430), 20 μL was added to each well, incubated in a 37° C., 5% CO2 incubator for 3-4 h. Read the 490 nm absorbance value with a microtiter plate, and used the 690 nm absorbance value as the background value and OD490-OD690 as the final initial data. The formula for calculating the inhibition rate of the compound was: inhibition rate=(OD DMSO-ODcompound)/(ODDMSO-Oblank)×100%. The compound's proliferation inhibition IC50 was fitted by Graph Pad Prism 5.0. The experiment was repeated three times, and three parallel experiments were used to calculate the average and standard deviation each time.

MV-4-11 cells = test: Effect of the compound on proliferation of MV-4-11 cells (MTS); conditions: Homo sapiens
Method: MV-4-11 cells were cultured with IMDM plus 10% fetal bovine serum and collected. The cell concentration was diluted according to the action time of 7 days, and 180 ul of cell suspension was added to each well of a 96-well cell plate to make the cell count to be 2000. 20 ul of DMSO with a final concentration of 0.2% was added to the control cell wells. The compound was diluted 5-fold with the 10 mM stock solution, and 20 ul was also added to the compound cell wells (the final concentration of DMSO was 0.2%). The cells were placed in a 37° C., 5% CO2 incubator and incubated for 7 days. After preparing the reaction solution according to the MTS kit (Promega, G5430), 20 μL was added to each well, incubated in a 37° C., 5% CO2 incubator for 3-4 h. Read the 490 nm absorbance value with a microtiter plate, and used the 690 nm absorbance value as the background value and OD490-OD690 as the final initial data. The formula for calculating the inhibition rate of the compound was: inhibition rate=(OD DMSO-ODcompound)/(ODDMSO-Oblank)×100%. The compound's proliferation inhibition IC50 was fitted by Graph Pad Prism 5.0. The experiment was repeated three times, and three parallel experiments were used to calculate the average and standard deviation each time. The cell viability test results were shown in Table 3: A means cell viability IC50<1 μM, B means cell viability 1 μM≤IC50≤20 μM, C means cell viability IC50>20 μM.

[1] = MV4-11, 168 h, 7 days, MTS, read-out: Inhibitory activity (IC50)
[2] = MV4-11, read-out: cytostatic activity (IC50) on MV-4-11 cells

Molecule `O=C1CCC(N2Cc3c(OCc4ccc(CN5CCOCC5)cc4)cccc3C2=O)C(=O)N1` (stereo not shown) [CC-220, reference compound] has an IC50 (MM.1S cells) of under 150 nM, an IC50 (Mino cells) of under 150 nM and an IC50 (MV-4-11 cells; [1]) of over 20000 nM. The IC50 (MV-4-11 cells; [2]) was over 20000 nM.

Work on `O=C1CCC(N2Cc3c(OCc4cn(-c5ccc(Cl)cc5)nn4)cccc3C2=O)C(=O)N1` (stereo not shown) [Compound 74, 3-(4-((1-(4-chlorophenyl)-1H-1,2,3-triazol-4-yl)methoxy)-1-oxoisoindolin-2-yl) piperidine-2,6-dione] yielded an IC50 (MM.1S cells) of under 150 nM and an IC50 (MV-4-11 cells; [1]) of under 1000 nM.

In the case of `O=C1CCC(N2Cc3c(OC[C@H]4CCN(c5ccc(OC(F)(F)F)cc5)C4)cccc3C2=O)C(=O)N1` (stereo partly drawn) [Compound 71, 3-(1-oxo-4-(((S)-1-(4-(trifluoromethoxy)phenyl)pyrrolin-3-)methoxy)isoindolin-2-) piperidine-2,6-dione], the IC50 (MM.1S cells) is reported as 150 to 20000 nM, the IC50 (Mino cells) is reported as 150 to 20000 nM and the IC50 (MV-4-11 cells; [1]) is reported as 1000 to 20000 nM.

In the case of `O=C1CCC(N2Cc3c(OCc4cn(-c5ccc(Cl)c(Cl)c5)nn4)cccc3C2=O)C(=O)N1` (stereo not shown) [Compound 75, 3-(4-((1-(3,4-dichlorophenyl)-1H-1,2,3-triazol-4-yl)methoxy)-1-isoindolin-2-yl) piperidine-2,6-dione], the IC50 (MM.1S cells) is reported as under 150 nM and the IC50 (MV-4-11 cells; [1]) is reported as under 1000 nM.

For `COCCn1ccc2cc(-n3cc(COc4cccc5c4CN(C4CCC(=O)NC4=O)C5=O)nn3)ccc21` (stereo not shown) [Compound 28], the IC50 (MM.1S cells) was under 150 nM, the IC50 (Mino cells) was under 150 nM and the IC50 (MV-4-11 cells; [1]) was under 1000 nM.

With `O=C1CCC(N2Cc3c(OCc4ncc(-c5ccc(OC(F)(F)F)cc5)o4)cc(F)cc3C2=O)C(=O)N1` (stereo not shown) [Compound 81, 3-(6-fluoro-1-oxo-4-((5-(4-(trifluoromethoxy)phenyl)oxazol-2-yl)methoxy)isoindolin-2-yl) piperidine-2,6-dione] the IC50 (MM.1S cells) was under 150 nM and the IC50 (MV-4-11 cells; [1]) was under 1000 nM.

`O=C1CCC(N2Cc3c(OC[C@@H]4CCN(c5ccc(OC(F)(F)F)cc5)C4)cccc3C2=O)C(=O)N1` (stereo partly drawn) [Compound 70, 3-(1-oxo-4-(((R)-1-(4-(trifluoromethoxy)phenyl)pyrrolin-3-)methoxy)isoindolin-2-) piperidine-2,6-dione] showed an IC50 (MM.1S cells) of under 150 nM, an IC50 (Mino cells) of 150 to 20000 nM and an IC50 (MV-4-11 cells; [1]) of 1000 to 20000 nM.

`O=C1CCC(N2Cc3c(OCc4nnc(-c5ccc(OC(F)(F)F)cc5)o4)cccc3C2=O)C(=O)N1` (stereo not shown) [Compound 43, 3-(1-oxo-4-((5-(4-trifluoromethoxyphenyl)-1,3,4-oxadiazol-2-)methoxy)isoindolin-2-) piperidine-2,6-dione] was tested, and the IC50 (MM.1S cells) was under 150 nM and the IC50 (Mino cells) was under 150 nM.

`O=C1CCC(N2Cc3c(OCc4ncc(-c5ccc(OC(F)(F)F)cc5)s4)cccc3C2=O)C(=O)N1` (stereo not shown) [Compound 39, 3-(1-oxo-4-((5-(4-trifluoromethoxyphenyl)thiazol-2-)methoxy)isoindolin-2-) piperidine-2,6-dione] gave an IC50 (MM.1S cells) of under 150 nM and an IC50 (Mino cells) of 150 to 20000 nM.

`O=C1CCC(N2Cc3c(OCc4cn(-c5ccc(OCC6CCOCC6)cc5)nn4)cccc3C2=O)C(=O)N1` (stereo not shown) [Compound 29, 3-(1-oxo-4-((1-(4-((2H-tetrahydropyran-4-)methoxy)phenyl)-1H-1,2,3-triazol-4-)methoxy)isoindolin-2-) piperidine-2,6-dione] showed an IC50 (MM.1S cells) of under 150 nM and an IC50 (Mino cells) of 150 to 20000 nM.

Work on `Nc1cccc2c1C(=O)N(C1CCC(=O)NC1=O)C2=O` (stereo not shown) [Pomalidomide, pomalidomide, reference compound] yielded an IC50 (MM.1S cells) of under 150 nM, an IC50 (Mino cells) of 150 to 20000 nM and an IC50 (MV-4-11 cells; [1]) of over 20000 nM. The IC50 (MV-4-11 cells; [2]) was over 20000 nM.

Work on `O=C1CCC(N2Cc3c(OCc4ncc(-c5ccc(OC(F)(F)F)cc5)o4)cccc3C2=O)C(=O)N1` (stereo not shown) [Compound 40, 3-(1-oxo-4-((5-(4-trifluoromethoxyphenyl)oxazol-2-)methoxy)isoindolin-2-) piperidine-2,6-dione] yielded an IC50 (MM.1S cells) of under 150 nM and an IC50 (Mino cells) of under 150 nM.

With `COC[C@H](Cc1ccccc1)n1cc(COc2cccc3c2CN(C2CCC(=O)NC2=O)C3=O)nn1` (stereo partly shown) [Compound 55] the IC50 (MM.1S cells) was under 150 nM and the IC50 (MV-4-11 cells; [1]) was 1000 to 20000 nM.

`O=C1CCC(N2Cc3c(OCc4cn(-c5cccc(Cl)c5Cl)nn4)cccc3C2=O)C(=O)N1` (stereo not shown) [Compound 18, 3-(4-((1-(2,3-dichlorophenyl)-1H-1,2,3-triazol-4-)methoxy)-1-oxoisoindolin-2-) piperidine-2,6-dione] showed an IC50 (MM.1S cells) of under 150 nM, an IC50 (Mino cells) of under 150 nM and an IC50 (MV-4-11 cells; [1]) of under 1000 nM.

Molecule `O=C1CCC(N2Cc3c(OCc4cn(-c5ccc6[nH]ccc6c5)nn4)cccc3C2=O)C(=O)N1` (stereo not shown) [Compound 26, 3-(4-((1-(1H-indol-5-)-1H-1,2,3-triazol-4-)methoxy)-1-oxoisoindolin-2-) piperidine-2,6-dione] has an IC50 (MM.1S cells) of under 150 nM, an IC50 (Mino cells) of under 150 nM and an IC50 (MV-4-11 cells; [1]) of under 1000 nM.

With `O=C1CCC(N2Cc3c(OCc4cn(C56CC7CC(CC(C7)C5)C6)nn4)cccc3C2=O)C(=O)N1` [Compound 76, 3-(4-((1-((3S, 5S, 7S)-adamantan-1-yl)-1H-1,2,3-triazol-4-yl)methoxy)-1-isoindolin-2-yl) piperidin-2,6-dione] the IC50 (MM.1S cells) was under 150 nM and the IC50 (MV-4-11 cells; [1]) was under 1000 nM.

`O=C1CCC(N2Cc3c(OCc4cn(-c5cccc(OC(F)(F)F)c5)nn4)cccc3C2=O)C(=O)N1` (stereo not shown) [Compound 20, 3-(1-oxo-4-((1-(3-(trifluoromethoxy)phenyl)-1H-1,2,3-triazol-4-)methoxy)isoindolin-2-) piperidine-2,6-dione] was tested, and the IC50 (MM.1S cells) was under 150 nM, the IC50 (Mino cells) was under 150 nM and the IC50 (MV-4-11 cells; [1]) was 1000 to 20000 nM.

Work on `O=C1CCC(N2Cc3c(OCc4nnc(-c5ccc(OC(F)(F)F)cc5)s4)cccc3C2=O)C(=O)N1` (stereo not shown) [Compound 41, 3-(1-oxo-4-((5-(4-trifluoromethoxyphenyl)-1,3,4-thiadiazol-2-)methoxy)isoindolin-2-) piperidine-2,6-dione] yielded an IC50 (MM.1S cells) of under 150 nM and an IC50 (Mino cells) of 150 to 20000 nM.

Molecule `Cc1nc2cccc(N)c2c(=O)n1C1CCC(=O)NC1=O` (stereo not shown) [CC-122, reference compound] has an IC50 (MM.1S cells) of under 150 nM, an IC50 (Mino cells) of 150 to 20000 nM and an IC50 (MV-4-11 cells; [1]) of over 20000 nM. The IC50 (MV-4-11 cells; [2]) was over 20000 nM.

Work on `O=C1CCC(N2Cc3c(OCc4cnc(-c5ccc(OC(F)(F)F)cc5)s4)cccc3C2=O)C(=O)N1` (stereo not shown) [Compound 44, 3-(1-oxo-4-((2-(4-trifluoromethoxyphenyl)thiazol-5-)methoxy)isoindolin-2-) piperidine-2,6-dione] yielded an IC50 (MM.1S cells) of under 150 nM and an IC50 (Mino cells) of under 150 nM.

In the case of `O=C1CCC(N2Cc3c(OCc4cn(-c5ccc(OC(F)(F)F)cc5)nn4)cc(F)cc3C2=O)C(=O)N1` (stereo not shown) [Compound 77, 3-(6-fluoro-1-oxo-4-((1-(4-(trifluoromethoxy)phenyl)-1H-1,2,3-triazol-4-yl)methoxy)isoindolin-2-yl) piperidine-2,6-dione], the IC50 (MM.1S cells) is reported as under 150 nM and the IC50 (MV-4-11 cells; [1]) is reported as under 1000 nM.

For `O=C1CCC(N2Cc3c(OCc4cn(-c5ccc(O[C@@H]6CCOC6)cc5)nn4)cccc3C2=O)C(=O)N1` (stereo partly drawn) [Compound 24, 3-(1-oxo-4-((1-(4-(((R)-tetrahydrofuran-3-)oxy)phenyl)-1H-1,2,3-triazol-4-)methoxy)isoindolin-2-)piperidine-2,6-dione], the IC50 (MM.1S cells) was under 150 nM and the IC50 (Mino cells) was under 150 nM.

`O=C1CCC(N2Cc3c(OCc4cn(-c5ccc(O[C@H]6CCOC6)cc5)nn4)cccc3C2=O)C(=O)N1` (stereo partly drawn) [Compound 25, 3-(1-oxo-4-((1-(4-(((S)-tetrahydrofuran-3-)oxy)phenyl)-1H-1,2,3-triazol-4-)methoxy)isoindolin-2-)piperidine-2,6-dione] was tested, and the IC50 (MM.1S cells) was under 150 nM and the IC50 (Mino cells) was under 150 nM.
